Assay: mn = molality of the nth substance listed, in mol/kg
Conditions: 99.6 kPa, Liquid; for mass density: Vibrating tube method; for kinematic viscosity: Capillary tube (Ostwald / Ubbelohde) method

CNC(C)=O [N-methylacetamide] + [Ca+2].[Cl-].[Cl-]
Conditions	kinematic viscosity, 323.15 K [m2/s]	kinematic viscosity, 328.15 K [m2/s]	mass density, 318.15 K [kg/m3]	mass density, 323.15 K [kg/m3]	mass density, 328.15 K [kg/m3]
m2 = 0	2.68e-06	2.42e-06	937.44	933.24	929.07
m2 = 0.00398	2.69e-06	2.44e-06	937.73	933.54	929.34
m2 = 0.01042	2.72e-06	2.46e-06	938.2	933.97	929.79
m2 = 0.04232	2.86e-06	2.58e-06	940.39	936.24	932.07
m2 = 0.05605	2.92e-06	2.63e-06	941.34	937.18	933.03
m2 = 0.08536	3.05e-06	2.74e-06	943.45	939.13	934.99
m2 = 0.1022	3.13e-06	2.81e-06	944.7	940.52	936.21
m2 = 0.1314	3.28e-06	2.95e-06	946.62	942.51	938.24
m2 = 0.1539	3.39e-06	3.05e-06	948.18	943.99	939.85
m2 = 0.1613	3.43e-06	3.09e-06	948.73	944.54	940.37
m2 = 0.1719	3.48e-06	3.13e-06	949.44	945.4	941.17
m2 = 0.1998	3.64e-06	3.27e-06	951.58	947.31	943.19
m2 = 0.2219	3.77e-06	3.39e-06	953.04	948.77	944.71
m2 = 0.2578	4e-06	3.58e-06	955.68	951.4	947.13
m2 = 0.3546	4.71e-06	4.2e-06	962.4	958.22	953.99

— the NIST ThermoML archive (doi:10.1021/acs.jced.7b00494)
